Source: publication PMC12504763, “Antiproliferation, 3D-multicellular spheroid and VEGFR-2 inhibitory properties of spiroindolin-2-ones with phosphonate function” (Scientific Reports, 2025)

Columns and labels:
[1] = tested on: A549 (lung) cancer cell line; design: method as in Reference 45; conditions: standard drug doxorubicin; ref Reference 45; cited from earlier work
CAM blood vessel network = assay: Chick chorioallantoic membrane (CAM) anti-angiogenic assay; format: in vivo, chicken; conditions: 20 μL of 660 μM, 3 days
Experimental: CAM assay is an established xenograft technique for investigating the angiogenic effect due to the high resemblance of the human vascularized epithelium basement membrane with that of the chorioallantoic layer containing mainly type IV collagen[84]–[86].
Fig. 10 Images of light microscopy for anti-angiogenic evaluation of the tested compounds using CAM assay. […] The glass slide was placed on the surface of the CAM blood vessel network and left in an incubator at 37 °C for 3 days. The CAM blood vessel network was carefully cut and imaged under a light microscope (40 × magnification).
Fertilized white chicken eggs were incubated in a 37 °C incubator with constant humidity. On day 8, a small squared window was opened allowing the detachment of the growing CAM and shell. The opening was covered with an elastic bandage. […] The CAM was then sealed with a bandage and placed back in the incubator. CAMs were examined daily until day 12 (3 days), the vascularized membranes were then cut around the glass slide and fixed in 5% formalin. Images were taken with an Evos microscope at 40x and 100x magnification^9. Main blood vessel in the microscopic images of controls and samples were quantified by imageJ and analyzed for significant differences (n = 4).

[2] = tested on: PaCa2 (pancreatic) cancer cell line; design: method as in Reference 30; conditions: standard drug sunitinib; ref Reference 30; cited from earlier work

In the case of `COc1cccc2c1C(=O)c1c(O)c3c(c(O)c1C2=O)C[C@@](O)(C(=O)CO)C[C@@H]3O[C@H]1C[C@H](N)[C@H](O)[C@H](C)O1` [Doxorubicin], the IC50 [1] is given as 5.93 µM.

For `CCN(CC)CCNC(=O)c1c(C)[nH]c(/C=C2\C(=O)Nc3ccc(F)cc32)c1C` [Sunitinib, reference compound], the “% Inhibition of the blood vessels in CAM test” value (CAM blood vessel network) is listed as 88.6%, the “Diameter of blood vessel (μm ± SEM)” value (CAM blood vessel network; CAM test, control 459.7 ± 13.8) is listed as 52.3 ± 1.7 μm and the IC50 [2] is listed as 16.9 µM.
